The source of these data is US20260365621A1, “Non-Hallucinogenic Tryptamine Compounds” (priority 2022, published 2026).

In experiment [1] the test system is head twitch response in C57BL/6J male mice. It counts as in vivo. How it is done:
The study of example 2 was performed using C57BL/6J male mice (25-30 g; Envigo, Milan, Italy). The animals were divided into groups of 10 animals each: (a) control, (b) vehicle, and (c) combinations of psilocyn (1 mg/kg) and pinoline (3 or 10 mg/kg). The treated mice were left to fast in the 12 hours prior to administration. Psilocyn and pinoline were resuspended in a solution of EtOH 20%. Mice were subjected to a singular oral administration of compounds. The vehicle group was given the EtOH 20% solution.
After administration, the animals were placed individually in transparent plexiglass cages. […] (See Halberstadt, Adam L., et al. “Differential contributions of serotonin receptors to the behavioral effects of indoleamine hallucinogens in mice.” Journal of psychopharmacology 25.11 (2011): 1548-1561.) (Sun, Yina, et al. “Effects of low-doses of methamphetamine on d-fenfluramine-induced head-twitch response (HTR) in mice during ageing and c-fos expression in the prefrontal cortex.” BMC neuroscience 24.1 (2023): 1-17.).

In experiment [2] the test system is 5-HT2A. The following applies: Central Nervous System (CNS); cited from earlier work.
Experiment [3] relates to mechanical allodynia / paw-withdrawal threshold after CAR injection. Briefly: Mechanical allodynia, Von Frey hair test after CAR injection. The following applies: Psilocin alone at 3 and 10 mg/Kg.
Protocol: A study was performed using male Sprague-Dawley rats (200-250 g; Envigo, Milan, Italy). Food and water were accessible ad libitum. Rats were concurrently subjected to a singular subplantar injection of CAR (100 μL of saline solution containing 1% CAR).
Mechanical allodynia was evaluated using a dynamic plantar Von Frey hair aesthesiometer on time 0 and 1, 2, 3, 4, 5, and 6 days post-injection (Bio-EVF4; Bioseb, Vitrolles, France) as previously described (D'Amico, R.; Fusco, R.; Siracusa, R.; Impellizzeri, D.; Peritore, A. F.; Gugliandolo, E.; Interdonato, L.; Sforza, A. M.; Crupi, R.; Cuzzocrea, S.; et al. Inhibition of P2X7 Purinergic Receptor Ameliorates Fibromyalgia Syndrome by Suppressing NLRP3 Pathway. Int. J. Mol. Sci. 2021, 22, 6471. https://doi.org/10.3390/ijms22126471). The device encloses a force transducer furnished with a plastic tip. When pressure is applied to the tip, the force applied is recorded. The tip was applied to the plantar area of the hind leg, and a rising upward force was exerted until the paw was withdrawn. The withdrawal threshold was defined as the force, expressed in grams, at which the mouse removed the paw.
To investigate whether Psilocin+Pinoline were able to reduce pain associated with CAR injection, a Von Frey test was performed.
The subject of experiment [4] is CAR-induced paw edema. Briefly: Carrageenan (CAR)-induced rat paw edema (plethysmometer). The following applies: Psilocin alone at 3 and 10 mg/Kg.
Protocol: A study was performed using male Sprague-Dawley rats (200-250 g; Envigo, Milan, Italy). Food and water were accessible ad libitum. Rats were concurrently subjected to a singular subplantar injection of CAR (100 μL of saline solution containing 1% CAR). […] Edema was expressed as the increase in paw volume (mL) after CAR injection relative to the pre-injection value for all animals. Scores were expressed as paw volume difference (mL).
In experiment [5] the test system is 5-HT2A. The following applies: Central Nervous System (CNS); cited from earlier work. The source holds these as a separate data set.

Like-named read-outs stand apart in the source and are kept apart here.

On to `COc1ccc2[nH]c3c(c2c1)CCNC3` [Pinoline, pinoline], for which the “effect of pinoline on psilocin activity (head twitch)” value in experiment [1] (pinoline 3 mg/kg with psilocin 1 mg/kg) and in experiment [1] (pinoline 10 mg/kg with psilocin 1 mg/kg) was “prolonged the psilocin (1 mg/kg) activity” in each case.

Regarding `CN(C)CCc1c[nH]c2cccc(O)c12` [Psilocin, 4-hydroxy-N,N-dimethyltryptamine], in experiment [2], the “binding to 5-HT2A receptor” value is recorded as “known to bind”. Besides, in experiment [3], the analgesic effects result was “anti-inflammatory and analgesic effects”. Besides, the anti-inflammatory effects result in experiment [4] was “anti-inflammatory and analgesic effects”. Further, in experiment [5], the “activities caused by 5-HT2A binding in the CNS” value was “hallucinogenic, anxiolytic, and psychoactive activities”. The “effect in head twitch test, 11-20 minutes” value in experiment [1] (10 mg/kg alone, after 11-20 minutes from administration) is listed as “finished”. In experiment [1] (10 mg/kg, after 10 minutes from treatment), the “number of head movements” value is given as “important number of head movements”.

For the compound `CN(C)CCc1c[nH]c2cccc(OP(=O)(O)O)c12` [Psilocybin, 4-phosphoryloxy-N,N-dimethyltryptamine], the “binding to 5-HT2A receptor” value in experiment [2] was “known to bind”. Besides, in experiment [5], the “activities caused by 5-HT2A binding in the CNS” value was “hallucinogenic, anxiolytic, and psychoactive activities”.
